Some results are limits rather than exact numbers.

One series concerns the target T1, Cyp11B1 (Homo sapiens, UniProt P15538).
T1 sequence (P15538 25-503): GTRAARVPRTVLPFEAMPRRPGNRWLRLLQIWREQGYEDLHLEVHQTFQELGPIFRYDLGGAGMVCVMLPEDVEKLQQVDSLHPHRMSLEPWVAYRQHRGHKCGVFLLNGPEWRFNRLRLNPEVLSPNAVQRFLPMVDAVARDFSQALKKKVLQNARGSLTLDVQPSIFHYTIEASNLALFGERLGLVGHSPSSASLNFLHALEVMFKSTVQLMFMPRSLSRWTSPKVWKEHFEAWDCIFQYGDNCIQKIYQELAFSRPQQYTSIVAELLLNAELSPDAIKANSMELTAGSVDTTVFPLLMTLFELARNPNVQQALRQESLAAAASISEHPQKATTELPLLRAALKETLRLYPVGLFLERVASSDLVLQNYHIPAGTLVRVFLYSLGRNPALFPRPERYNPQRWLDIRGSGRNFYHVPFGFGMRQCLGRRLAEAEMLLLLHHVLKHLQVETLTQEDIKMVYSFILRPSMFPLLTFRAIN
Assay: not given
Particulars: in contrast to IMTO; cited from earlier work.
As to `C[C@H](c1ccc(I)cc1)n1cncc1C(=O)O` [iodometomidate acid, (R)-1-[1-(4-Iodophenyl)ethyl]-1H-imidazole-5-carboxylic acid], the “affinity to Cyp11B1” value was “little or no affinity”.

Another series addresses T2, human Cyp11B2, aldosterone synthase (Homo sapiens, UniProt P19099).
T2 construct: the full-length cDNAs for the proteins were subcloned into the multicloning site of pcDNA3.1 (zeo); expressed in transfected cells
T2 sequence (P19099 25-503): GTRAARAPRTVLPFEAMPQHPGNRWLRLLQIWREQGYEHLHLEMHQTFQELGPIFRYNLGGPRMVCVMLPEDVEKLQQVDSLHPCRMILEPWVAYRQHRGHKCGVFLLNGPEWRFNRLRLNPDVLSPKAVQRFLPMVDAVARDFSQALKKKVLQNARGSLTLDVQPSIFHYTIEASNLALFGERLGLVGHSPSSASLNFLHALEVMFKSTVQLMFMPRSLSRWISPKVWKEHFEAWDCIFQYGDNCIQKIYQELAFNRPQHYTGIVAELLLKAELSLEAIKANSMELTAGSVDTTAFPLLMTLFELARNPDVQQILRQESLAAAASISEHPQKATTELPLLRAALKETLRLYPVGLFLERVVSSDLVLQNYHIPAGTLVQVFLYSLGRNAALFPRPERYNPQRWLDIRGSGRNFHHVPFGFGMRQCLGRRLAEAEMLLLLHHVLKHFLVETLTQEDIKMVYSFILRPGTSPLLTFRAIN
Description: Cyp11B2 (aldosterone synthase) inhibition in stably transfected Y1-Cyp11B2 cells, substrate 11-deoxycorticosterone (DOC). It counts as cell-based.
Details: not given
The text has this: (§1) Plasmid constructs and transfection: To induce expression of human cytochrome P450 family 11B1 (Cyp11B1) and Cyp11B2 enzymes in Y1 cells, the full-length cDNAs for the proteins were subcloned into the multicloning site of pcDNA3.1 (zeo) (Invitrogen, Eggenstein, Germany). The cDNA fragments were isolated by PCR and digested by EcoRI. The individual fragments were ligated into the linearized vectors digested by EcoRI. Human Cyp11B1 and Cyp11B2 enzymes were expressed in Y1 cells using liposome/lipid-mediated DNA transfection. Purified plasmid DNA was mixed with Lipofectamine (Invitrogen) transfection reagents according to the manufacturer's protocol. To generate a stable Y1-Cyp11B1 and Y1-Cyp11B2 cell line, Y1 cells were transfected with the pcDNA3.1 (zeo)-Cyp11B1 and pcDNA3.1 (zeo)-Cyp11B2 vector, respectively.
(§2) Transfected cells were selected with 1000 μg/ml zeocin (Invitrogen). To screen colonies, Western blotting and real-time PCR were used to determine the level of Cyp11B1 and Cyp11B2 expression. Colonies with the highest Cyp11B expression were further tested for their ability to synthesize cortisol or aldosterone from deoxycortisol (RSS) and 11-deoxycorticosterone (DOC), respectively. Experimental protocols were standardized regarding substrate concentrations and incubation periods.
The enzyme reaction was started after 24 hours by the addition of 1 ml culture medium containing either 11-deoxycortisol (RSS) or 11-deoxycorticosterone (DOC) as substrate and the corresponding inhibitor. RSS and DOC were dissolved in ethanol to a final test concentration of 1 μM. […] Y1-Cyp11B1 and Y1-Cyp11B2 cells, which were treated in the same way but without inhibitors, served as controls. As further controls, untransfected Y1 cells were also incubated with RSS and DOC, respectively. Both RSS and DOC were obtained from Sigma (Deisenhofen, Germany).
For the molecule `CCN(CC)C(=O)c1cncn1[C@H](C)c1ccc(I)cc1` [2b], it took 10.9 ± 2.02 nM to reach half-maximal inhibition (IC50).
As to `C[C@H](c1ccc(I)cc1)n1cncc1C(N)=O` [2j], the IC50 (commonly the point on the concentration scale where inhibition reaches its midpoint) turned out to be 1410 ± 2070 nM.
Same read-out and setting: in the case of `C[C@H](c1ccc(I)cc1)n1cncc1C(=O)N1CCC1` [2e, (R)-1-[1-(4-Iodophenyl)ethyl]-1H-imidazole-5-carboxylic acid azetidinylamide] it was 1.22 ± 0.08 nM.
`CCCN(CC)C(=O)c1cncn1[C@H](C)c1ccc(I)cc1` [2n] registered a concentration for half-maximal inhibition (IC50) of 390 ± 170 nM.
Same read-out and setting: in the case of `CCCN(C)C(=O)c1cncn1[C@H](C)c1ccc(I)cc1` [2l] it was 3.5 ± 7.5 nM.
In the case of `CCN(C)C(=O)c1cncn1[C@H](C)c1ccc(I)cc1` [2a, (R)-1-[1-(4-Iodophenyl)ethyl]-1H-imidazole-5-carboxylic acid ethylmethylamide], the IC50 stood at 4.2 ± 0.37 nM.
Molecule `COC(=O)c1cncn1[C@H](C)c1ccc(I)cc1` [iodometomidate (IMTO), 4-Iodometomidate, reference compound] yielded an IC50 of 2 ± 2.3 nM.
Same read-out and setting: in the case of `C[C@H](c1ccc(I)cc1)n1cncc1C(=O)N(C)C` [2i] it was 15.7 nM; in that of `CC(C)N(C)C(=O)c1cncn1[C@H](C)c1ccc(I)cc1` [2m], 147 ± 61.9 nM; in that of `C[C@H](c1ccc(I)cc1)n1cncc1C(=O)NCCO` [2k], 221 ± 168 nM.

Staying with this series, now noted: Y1-Cyp11B2 cells, 1 μM DOC, 48 h incubation; read-out: IC50 aldosterone synthase.
As for `C[C@H](c1ccc(I)cc1)n1cncc1C(=O)N1CCCCC1` [2g], the IC50 stood at 5.5 ± 2.2 nM.
For the molecule `Cc1nnc(-c2cncn2[C@H](C)c2ccc(I)cc2)o1` [6a], the half-inhibitory concentration (IC50) was found to be 90.1 nM.
The same measure, in the same setting: in the case of `C[C@H](c1ccc(I)cc1)n1cncc1C(=O)N1CCOCC1` [2h] it was 182 nM.

Tested on in a further series: not listed separately
Description: Metabolization of IMTO in the blood of patients. Particulars: iodometomidate acid identified after few minutes as product of enzymatic hydrolysis.
For `COC(=O)c1cncn1[C@H](C)c1ccc(I)cc1` [iodometomidate (IMTO), 4-Iodometomidate, reference compound], the “biological half-life in the blood of patients” value is “very limited”.

In the next series the test system is adrenocortical carcinoma.
Assay: not given
Conditions: advanced disease, retrospective analyses; cited from earlier work.
As for `Clc1ccc(C(c2ccccc2Cl)C(Cl)Cl)cc1` (centres unmarked) [mitotane], the overall response rate is on record as 26%.

Another series relates to adrenal gland and other organs. Briefly: Biodistribution in mice. Type of series: in vivo. Conditions: male CD-1 mice, i.v. 37 kBq, 15 min to 4 h. The procedure:
The biodistribution of IMTO, (R)-1-[1-(4-iodophenyl)ethyl]-1H-imidazole-5-carboxylic acid ethyl-methyl amide (compound 2a) and (R)-1-[1-(4-iodophenyl)ethyl]-1H-imidazole-5-carboxylic acid azetidinylamide (compound 2e) has been assessed in mice as follows. Male CD-1 mice were injected iv with 1 μCi (37 kBq) (R)-1-[1-(4-[^125I]iodophenyl)ethyl]-1H-imidazole-5-carboxylic acid ethyl-methyl amide. At predefined time points (15 min, 30 min, 2 h, and 4 h), mice were killed (n 6 per time point). Blood was collected, and heart, lung, liver, intestine, stomach, spleen, kidneys, adrenals, testes, brain and other organs were excised and weighed. Radioactivity was measured using a gamma-counter.
With `C[C@H](c1ccc(I)cc1)n1cncc1C(=O)N1CCC1` [2e, (R)-1-[1-(4-Iodophenyl)ethyl]-1H-imidazole-5-carboxylic acid azetidinylamide], the “biodistribution: organ of predominant uptake” value is reported as “predominately in adrenal gland”.
On to `CCN(C)C(=O)c1cncn1[C@H](C)c1ccc(I)cc1` [2a, (R)-1-[1-(4-Iodophenyl)ethyl]-1H-imidazole-5-carboxylic acid ethylmethylamide], for which the “biodistribution: organ of predominant uptake” value is “predominately in adrenal gland”.

Another series concerns adrenal glands. Description: Uptake in adrenal glands in mice, ex vivo gamma counting. Particulars: male CD-1 mice, i.v. 1 μCi (37 kBq), 15, 30, 120 and 240 min; 2a especially after 120 and 240 minutes, 2e at any time point. The procedure:
The uptake of IMTO, (R)-1-[1-(4-iodophenyl)ethyl]-1H-imidazole-5-carboxylic acid ethyl-methyl amide (compound 2a) and (R)-1-[1-(4-iodophenyl)ethyl]-1H-imidazole-5-carboxylic acid azetidinylamide (compound 2e) in adrenal glands in mice in ex vivo experiments has been examined as follows. Male CD-1 mice were injected i.v. with 1 μCi (37 kBq) IMTO, (R)-1-[1-(4-[^125I]iodophenyl)ethyl]-1H-imidazole-5-carboxylic acid ethyl-methyl amide or (R)-1-[1-(4-iodophenyl)ethyl]-1H-imidazole-5-carboxylic acid azetidinylamide (compound 2e). At predefined time points (15 min, 30 min, 120 min, and 240 min) mice were killed (n≧6 per time point) and adrenals were excised and weighed. Radioactivity was measured using a gamma-counter.
`C[C@H](c1ccc(I)cc1)n1cncc1C(=O)N1CCC1` [2e, (R)-1-[1-(4-Iodophenyl)ethyl]-1H-imidazole-5-carboxylic acid azetidinylamide]: the “uptake in adrenal glands compared to IMTO” value is “greatly increased”.
As to `CCN(C)C(=O)c1cncn1[C@H](C)c1ccc(I)cc1` [2a, (R)-1-[1-(4-Iodophenyl)ethyl]-1H-imidazole-5-carboxylic acid ethylmethylamide], the “uptake in adrenal glands compared to IMTO” value was “increased”.

The same series, now with this note: male CD-1 mice, i.v., after 240 minutes.
Turning to `C[C@H](c1ccc(I)cc1)n1cncc1C(=O)N1CCC1` [2e, (R)-1-[1-(4-Iodophenyl)ethyl]-1H-imidazole-5-carboxylic acid azetidinylamide], the “factor of increase of adrenal uptake compared to IMTO” value is “about 10”.

The target of another series is T3, human cytochrome P450 family 11B1 (Cyp11B1), 11β-hydroxylase (Homo sapiens, UniProt P15538).
T3 construct: the full-length cDNAs for the proteins were subcloned into the multicloning site of pcDNA3.1 (zeo); expressed in transfected cells
T3 sequence (P15538 25-503): T1 sequence (P15538 25-503)
Description: Cyp11B1 (11β-hydroxylase) inhibition in stably transfected Y1-Cyp11B1 cells, substrate 11-deoxycortisol (RSS). It counts as cell-based.
Details: not given
Text: as §1, §2
In vitro evaluation of specificity: To evaluate Cyp11B1 and Cyp11B2 inhibition by the inventive compounds, Y1-Cyp11B1 and Y1-Cyp11B2 cells were subcultured on six-well plates (0.5×10^6 cells per well) in 2 ml culture medium.
The enzyme reaction was started after 24 hours by the addition of 1 ml culture medium containing either 11-deoxycortisol (RSS) or 11-deoxycorticosterone (DOC) as substrate and the corresponding inhibitor. RSS and DOC were dissolved in ethanol to a final test concentration of 1 μM. For determination of IC50 values, the inhibitors were added to the culture medium at concentrations between 0.6 nM and 60 μM and incubated for 48 h. Y1-Cyp11B1 and Y1-Cyp11B2 cells, which were treated in the same way but without inhibitors, served as controls. As further controls, untransfected Y1 cells were also incubated with RSS and DOC, respectively. Both RSS and DOC were obtained from Sigma (Deisenhofen, Germany).
`CCN(CC)C(=O)c1cncn1[C@H](C)c1ccc(I)cc1` [2b] gave an IC50 of 36.6 nM.
Turning to `C[C@H](c1ccc(I)cc1)n1cncc1C(N)=O` [2j], half-maximal inhibition (IC50) required 329 ± 310 nM.
`C[C@H](c1ccc(I)cc1)n1cncc1C(=O)N1CCC1` [2e, (R)-1-[1-(4-Iodophenyl)ethyl]-1H-imidazole-5-carboxylic acid azetidinylamide] came in with an IC50 of 3.16 ± 0.14 nM.
Still for that read-out and setting: the value for `CCCN(CC)C(=O)c1cncn1[C@H](C)c1ccc(I)cc1` [2n] was 1320 nM.
Still for that read-out and setting: in the case of `CCCN(C)C(=O)c1cncn1[C@H](C)c1ccc(I)cc1` [2l] it was 74.7 nM.
`CCN(C)C(=O)c1cncn1[C@H](C)c1ccc(I)cc1` [2a, (R)-1-[1-(4-Iodophenyl)ethyl]-1H-imidazole-5-carboxylic acid ethylmethylamide] returned an IC50 of 3.9 ± 0.6 nM.
In turn, `COC(=O)c1cncn1[C@H](C)c1ccc(I)cc1` [iodometomidate (IMTO), 4-Iodometomidate, reference compound] had an IC50 of 2.6 ± 1.1 nM.
On the same count and under the same terms, in the case of `C[C@H](c1ccc(I)cc1)n1cncc1C(=O)N(C)C` [2i] it was above 1000 nM.
With `CC(C)N(C)C(=O)c1cncn1[C@H](C)c1ccc(I)cc1` [2m], half-maximal inhibition (IC50) required 78.2 nM.
In the case of `C[C@H](c1ccc(I)cc1)n1cncc1C(=O)NCCO` [2k], the IC50 was 336 ± 398 nM.

Still in this series, the particulars now being: Y1-Cyp11B1 cells, 1 μM RSS, 48 h incubation; read-out: IC50 11β-hydroxylase.
Take `C[C@H](c1ccc(I)cc1)n1cncc1C(=O)N1CCCCC1` [2g]: the half-maximal inhibitory concentration (IC50) came out at 11.7 nM.
Regarding `Cc1nnc(-c2cncn2[C@H](C)c2ccc(I)cc2)o1` [6a], the IC50 was found to be 10.6 ± 9.2 nM.
`C[C@H](c1ccc(I)cc1)n1cncc1C(=O)N1CCOCC1` [2h]: the IC50 is 805 nM.

A further series has as its target T4, CYP11B2 (Homo sapiens, UniProt P19099).
T4 sequence (P19099 25-503): T2 sequence (P19099 25-503)
Assay: not given
Conditions: in contrast to IMTO; cited from earlier work.
For the molecule `C[C@H](c1ccc(I)cc1)n1cncc1C(=O)O` [iodometomidate acid, (R)-1-[1-(4-Iodophenyl)ethyl]-1H-imidazole-5-carboxylic acid], the “affinity to CYP11B2” value was “little or no affinity”.

Source of the values: US9814789B2, “Radiopharmaceutical products for diagnosis and therapy of adrenal carcinoma” (JULIUS-MAXIMILIANS-UNIVERSITÄT WÜRZBURG, priority 2012, dated 2017).
